Several values for one entry are separate records, joined by “and”; a condition that tells them apart may be missing. Equal values may be shown once. Read-outs that look alike come from different tables or passages of the source.
Legend:
[1] = biological target: T1, 5-LOX (Homo sapiens, UniProt P09917); test: 5-LOX fluorescent assay (in vitro lipoxygenase inhibition); format: biochemical; details: recombinant 5-LOX cell lysate, 20 μM AA, DHR123 fluorescence; several values in a cell = repeat determinations; read-out: IC50 (μM) values for in vitro lipoxygenase inhibition, 5-LOX
T1 sequence (P09917 1-674): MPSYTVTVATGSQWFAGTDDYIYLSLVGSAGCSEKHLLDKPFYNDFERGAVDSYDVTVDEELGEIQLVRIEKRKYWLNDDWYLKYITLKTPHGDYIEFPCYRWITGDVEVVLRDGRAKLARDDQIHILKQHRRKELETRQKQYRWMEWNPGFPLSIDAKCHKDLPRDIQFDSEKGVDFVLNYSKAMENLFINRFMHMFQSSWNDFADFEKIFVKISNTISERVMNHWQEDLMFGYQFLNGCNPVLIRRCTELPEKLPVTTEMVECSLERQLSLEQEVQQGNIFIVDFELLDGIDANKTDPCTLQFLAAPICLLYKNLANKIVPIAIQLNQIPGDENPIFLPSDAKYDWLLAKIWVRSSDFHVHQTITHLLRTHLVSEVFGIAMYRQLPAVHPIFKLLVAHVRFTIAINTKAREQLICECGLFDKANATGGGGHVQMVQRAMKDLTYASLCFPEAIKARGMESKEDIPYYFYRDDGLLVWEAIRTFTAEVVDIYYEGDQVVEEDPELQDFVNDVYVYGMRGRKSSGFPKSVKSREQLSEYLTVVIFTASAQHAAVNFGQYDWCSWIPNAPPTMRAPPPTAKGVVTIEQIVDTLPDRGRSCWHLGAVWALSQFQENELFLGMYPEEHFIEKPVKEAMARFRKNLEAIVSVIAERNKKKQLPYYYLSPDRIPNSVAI
Description: 5-LOX FI assay Fluorescent Assay
The enzyme assay (100 μL) contained 50 mM Tris, pH 7.5, 0.1 mM EDTA, 0.3 mM CaCl2, 20 μM AA, 100 μM ATP, 1 μM DHR123, and recombinant 5-LOX cell lysate (0.5 μL/100 μL). Inhibitors (dissolved in DMSO) were plated at 1 μL into 96-well assay microplates followed by a 40 μL addition of a solution containing 5-LOX enzyme. Enzyme was pre-incubated with compounds for 15 mins. The assay was initiated by the addition of a 40 μL substrate solution containing AA and ATP, and 20 μL addition of a solution containing DHR123. […] Percent inhibition was calculated for each compound dose for IC50 curve fitting using 4 Parameter Logistic Model or Sigmoidal Dose-Response Model.

[2] = biological target: T2, 12-LOX (Homo sapiens, UniProt P18054); test: 12-LOX fluorescent assay (in vitro lipoxygenase inhibition); format: biochemical
T2 sequence (P18054 1-663): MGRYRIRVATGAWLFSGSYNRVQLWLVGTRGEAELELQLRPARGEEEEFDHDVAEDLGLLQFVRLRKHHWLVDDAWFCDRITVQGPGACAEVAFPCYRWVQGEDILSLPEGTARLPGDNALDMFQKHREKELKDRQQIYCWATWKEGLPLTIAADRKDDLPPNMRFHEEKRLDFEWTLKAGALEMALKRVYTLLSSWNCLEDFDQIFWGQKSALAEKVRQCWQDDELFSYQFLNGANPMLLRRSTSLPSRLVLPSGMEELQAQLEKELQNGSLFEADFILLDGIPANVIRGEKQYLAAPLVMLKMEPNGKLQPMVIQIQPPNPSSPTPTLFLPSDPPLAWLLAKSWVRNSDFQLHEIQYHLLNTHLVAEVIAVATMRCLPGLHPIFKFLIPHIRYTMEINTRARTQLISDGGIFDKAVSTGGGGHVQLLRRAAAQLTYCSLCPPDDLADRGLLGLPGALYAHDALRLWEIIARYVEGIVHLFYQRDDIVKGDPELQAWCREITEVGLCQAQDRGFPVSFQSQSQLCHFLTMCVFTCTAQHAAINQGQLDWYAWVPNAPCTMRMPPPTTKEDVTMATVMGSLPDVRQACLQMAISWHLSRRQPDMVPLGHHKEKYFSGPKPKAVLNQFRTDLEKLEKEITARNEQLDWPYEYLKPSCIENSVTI
Description: 12-LOX/15-LOX Fluorescent Assay
The enzyme assay (100 ul) contained 50 mM Tris, pH 7.5, 0.05% Tween-20, 20 μM AA/LA, 1 μM DHR123, and 100 nM recombinant 12-LOX enzyme/50 nM recombinant 15-LOX enzyme. Inhibitors (dissolved in DMSO) were plated at 1 μL into 96-well assay microplates followed by a 40 μL addition of a solution containing 12-LOX/15-LOX enzyme. Enzyme was pre-incubated with compounds for 15 mins. The assay was initiated by the addition of a 40 μL substrate solution containing AA/LA, and 20μL addition of a solution containing DHR123. […] Percent inhibition was calculated for each compound dose for IC50 curve fitting using 4 Parameter Logistic Model or Sigmoidal Dose-Response Model.

[3] = 100 nM recombinant 12-LOX, 20 μM AA, DHR123 fluorescence, several values in a cell = repeat determinations, read-out: IC50 (μM) values for in vitro lipoxygenase inhibition, 12-LOX

Row | IC50 [1] | IC50 [2, 3] | Compound | IC50 [2]
1 | 0.64 µM | 0.28 µM | Fc1ccc(Nc2ccc(NCC3(Cn4cncn4)COC3)c(C(F)(F)F)c2)c(Cl)c1 [SS20308-0279-01, N^1-((3-((1H-1,2,4-triazol-1-yl)methyl)oxetan-3-yl)methyl)-N^4-(2-chloro-4-fluorophenyl)-2-(trifluoromethyl)benzene-1,4-diamine] | –
2 | 0.1 µM and 0.18 µM | 0.04 µM and 0.03 µM | Fc1ccc(CNc2ccc(NCCCn3cncn3)c(F)c2)cc1 [SS20308-0236-01, N^1-(3-(1H-1,2,4-triazol-1-yl)propyl)-2-fluoro-N^4-(4-fluorobenzyl)benzene-1,4-diamine] | –
3 | 0.15 µM | 0.05 µM | Fc1ccc(Nc2ccc(NCC3(Cn4cncn4)COC3)c(OC(F)(F)F)c2)cc1 [SS20308-0319-01, N^1-((3-((1H-1,2,4-triazol-1-yl)methyl)oxetan-3-yl)methyl)-N^4-(4-fluorophenyl)-2-(trifluoromethoxy)benzene-1,4-diamine] | –
4 | 1.45 µM | 0.72 µM | Cn1cncc1-c1ccc(Nc2ccccc2)cc1NCCn1cncn1 [SS20308-0177-01, N^3-(2-(1H-1,2,4-triazol-1-yl)ethyl)-4-(1-methyl-1H-imidazol-5-yl)-N^1-phenylbenzene-1,3-diamine] | –
5 | 1.09 µM | 0.36 µM | c1cc(NCC2(Cn3cncn3)COC2)cc(NC2CCCCC2)c1 [SS20308-0241-01, N^1-((3-((1H-1,2,4-triazol-1-yl)methyl)oxetan-3-yl)methyl)-N^3-cyclohexylbenzene-1,3-diamine] | –
6 | 0.14 µM | 0.06 µM | FC(F)(F)C(Nc1ccc(NCCn2cncn2)c(-c2ccccc2)c1)c1ccccc1 (stereo not drawn) [SS20308-0226-01, N^2-(2-(1H-1,2,4-triazol-1-yl)ethyl)-N^5-(2,2,2-trifluoro-1-phenylethyl)-[1,1′-biphenyl]-2,5-diamine] | –
7 | 0.05 µM and 0.06 µM | 0.02 µM and 0.06 µM | Cc1cc(Nc2ccc(F)c(Cl)c2)ccc1NCC1(Cn2cncn2)COC1 [SS20308-0307-01, N^1-((3-((1H-1,2,4-triazol-1-yl)methyl)oxetan-3-yl)methyl)-N^4-(3-chloro-4-fluorophenyl)-2-methylbenzene-1,4-diamine] | –
8 | 0.02 µM and 0.03 µM | 0.01 µM | c1ncn(CCCNc2ccc(NCC3CCCCC3)cc2)n1 [SS20308-0240-01, N^1-(3-(1H-1,2,4-triazol-1-yl)propyl)-N^4-(cyclohexylmethyl)benzene-1,4-diamine] | –
9 | 0.68 µM | 0.51 µM | CN(C)CCCc1cc(Nc2ccc(F)cc2Cl)c(F)cc1Nc1ccc(F)cc1Cl [SS20308-0199-01, N^1,N^4-bis(2-chloro-4-fluorophenyl)-2-(3-(dimethylamino)propyl)-5-fluorobenzene-1,4-diamine] | –
10 | 0.25 µM and 0.61 µM | 0.07 µM and 0.15 µM | Cc1cccc(Nc2ccc(NCC3(Cn4cncn4)COC3)c(C)c2)n1 [SS20308-0289-01, N^1-((3-((1H-1,2,4-triazol-1-yl)methyl)oxetan-3-yl)methyl)-2-methyl-N^4-(6-methylpyridin-2-yl)benzene-1,4-diamine] | –
11 | 0.04 µM | 0.03 µM | Cc1cc(Nc2ccc(Cl)c(F)c2)ccc1NCC1(Cn2ccnc2)COC1 [SS20308-0328-01, N^1-((3-((1H-imidazol-1-yl)methyl)oxetan-3-yl)methyl)-N^4-(4-chloro-3-fluorophenyl)-2-methylbenzene-1,4-diamine] | –
12 | 0.31 µM | 0.29 µM | CN(C)CCCc1c(NCc2ccc(F)cc2)cccc1-c1cccc2c1NCC2 [SS20308-0253-01, 2-(3-(dimethylamino)propyl)-N-(4-fluorobenzyl)-3-(indolin-7-yl)aniline] | –
13 | 0.18 µM and 0.34 µM | 0.09 µM and 0.17 µM | Fc1ccc(Nc2ccc(-c3ccccc3)c(NCCn3cncn3)c2)cc1 [SS20308-0142-01, N^2-(2-(1H-1,2,4-triazol-1-yl)ethyl)-N^4-(4-fluorophenyl)biphenyl-2,4-diamine] | –
14 | 0.35 µM | 0.11 µM | Fc1cc(Nc2ccccc2Cl)ccc1NCC1(Cn2cncn2)COC1 [SS20308-0313-01, N^1-((3-((1H-1,2,4-triazol-1-yl)methyl)oxetan-3-yl)methyl)-N^4-(2-chlorophenyl)-2-fluorobenzene-1,4-diamine] | –
15 | 0.02 µM and 0.06 µM | 0.02 µM and 0.04 µM | c1ccc(-c2cc(NCC3CCCCC3)ccc2NCCn2cncn2)cc1 [SS20308-0217-01, N^2-(2-(1H-1,2,4-triazol-1-yl)ethyl)-N^5-(cyclohexylmethyl)-[1,1′-biphenyl]-2,5-diamine] | –
16 | 1.59 µM | 0.37 µM | Fc1ccc(CNc2cccc(NCCn3cncn3)n2)cc1 [SS20308-0249-01, N^2-(2-(1H-1,2,4-triazol-1-yl)ethyl)-N^6-(4-fluorobenzyl)pyridine-2,6-diamine] | –
17 | 2.32 µM | 1.49 µM | O=C(CCn1cncn1)Nc1cc(Nc2ccccc2)ccc1-c1ccccc1 [SS20308-0134-01, N-(4-(phenylamino)-[1,1′-biphenyl]-2-yl)-3-(1H-1,2,4-triazol-1-yl)propanamide] | –
18 | 0.07 µM and 0.09 µM | 0.04 µM and 0.03 µM | c1ccc(CNc2ccc(NCCn3cncn3)c(-c3ccncc3)c2)cc1 [SS20308-0215-01, N^1-(2-(1H-1,2,4-triazol-1-yl)ethyl)-N^4-benzyl-2-(pyridin-4-yl)benzene-1,4-diamine] | –
19 | 0.63 µM | 0.3 µM | OCCc1ccccc1-c1ccc(Nc2ccccc2)cc1NCCn1cncn1 [SS20308-0149-01, 2-(2′-(2-(1H-1,2,4-triazol-1-yl)ethylamino)-4′-(phenylamino)biphenyl-2-yl)ethanol] | –
20 | 0.08 µM and 0.07 µM | 0.04 µM and 0.03 µM | Fc1ccc(CNc2ccc(NCCn3cncn3)c(-c3cccc4c3NCC4)c2)cc1 [SS20308-0211-01, N^1-(2-(1H-1,2,4-triazol-1-yl)ethyl)-N^4-(4-fluorobenzyl)-2-(indolin-7-yl)benzene-1,4-diamine] | –
21 | 0.19 µM | 0.13 µM | N#Cc1ccc(-c2ccc(Nc3ccccc3)cc2NCCn2cncn2)s1 [SS20308-0194-01, 5-(2-(2-(1H-1,2,4-triazol-1-yl)ethylamino)-4-(phenylamino)phenyl)thiophene-2-carbonitrile] | –

Row | Compound | IC50 [1] | IC50 [2, 3] | IC50 [2]
22 | Fc1ccc(Nc2ccc(NCCn3cncn3)c(-c3ccccc3)c2)c(Cl)c1 [SS20308-0165-01, N^2-(2-(1H-1,2,4-triazol-1-yl)ethyl)-N^5-(2-chloro-4-fluorophenyl)biphenyl-2,5-diamine] | 0.03 µM and 0.23 µM | – | 0.08 µM and 0.06 µM
23 | c1ccc(Nc2ccc(-c3ccccc3)c(NCCn3cncn3)c2)cc1 [SS20308-0095-01, N^2-(2-(1H-1,2,4-triazol-1-yl)ethyl)-N^4-phenylbiphenyl-2,4-diamine] | 0.35 µM | – | 0.18 µM
24 | c1ncn(CCCNc2ccc(NC3CCCCC3)cc2)n1 [SS20308-0239-01, N^1-(3-(1H-1,2,4-triazol-1-yl)propyl)-N^4-cyclohexylbenzene-1,4-diamine] | 0.04 µM and 0.07 µM | – | 0.03 µM
